Data on 7 molecules can be found in publication PMC6905855, “Agonist-specific voltage-dependent gating of lysosomal two-pore Na^+ channels” (eLife, 2019).

Assay [1] concerns the target T1, surface-expressing mutant TPC2 channel (TPC2^LL/AA) in HEK293 cells (Homo sapiens, UniProt Q8NHX9, L11A/L12A).
T1 construct: expressed in transfected cells; host or cells: HEK293
Nature of the assay: Whole-cell recordings of ITPC2-LL/AA. The assay is classed as cell-based. To be noted: for activation of whole-cell ITPC2-LL/AA (in words): bath application, symmetric Na^+, 100 µM where stated; for current density: whole cell recordings, individual recordings; for EC50: whole-cell recordings at −140 mV, TPC2^LL/AA-transfected HEK293 cells. From the text:
We therefore characterized the responses of TPC2 channels to TCAs in detail using electrophysiological methods. We first performed whole-cell recordings in HEK293 cells that were transfected with surface-expressed TPC2 mutant channels (TPC2-L^11L^12-AA; abbreviated as TPC2^LL/AA hereafter).
All TPC1 and TPC2 mutants were generated with a site-directed mutagenesis kit (Qiagen) using EGFP- human TPC1 and TPC2 as the templates. All constructs were confirmed by DNA sequencing.
Cells were transfected with Lipofectamine 2000 (Invitrogen). After culture media were refreshed 18–24 hr post-transfection, cells were used for the electrophysiological assays 24–36 hr post-transfection.
All bath solutions were applied via a perfusion system that allowed complete solution exchange within a few seconds. […] Whole-cell currents were digitized at 10 kHz and filtered at 2 kHz.

The target in the next assay is T2, hTPC2 (Homo sapiens, UniProt Q8NHX9).
T2 construct: expressed in transfected cells; host or cells: Cos1 and HEK293
T2 sequence (Q8NHX9 whole entry): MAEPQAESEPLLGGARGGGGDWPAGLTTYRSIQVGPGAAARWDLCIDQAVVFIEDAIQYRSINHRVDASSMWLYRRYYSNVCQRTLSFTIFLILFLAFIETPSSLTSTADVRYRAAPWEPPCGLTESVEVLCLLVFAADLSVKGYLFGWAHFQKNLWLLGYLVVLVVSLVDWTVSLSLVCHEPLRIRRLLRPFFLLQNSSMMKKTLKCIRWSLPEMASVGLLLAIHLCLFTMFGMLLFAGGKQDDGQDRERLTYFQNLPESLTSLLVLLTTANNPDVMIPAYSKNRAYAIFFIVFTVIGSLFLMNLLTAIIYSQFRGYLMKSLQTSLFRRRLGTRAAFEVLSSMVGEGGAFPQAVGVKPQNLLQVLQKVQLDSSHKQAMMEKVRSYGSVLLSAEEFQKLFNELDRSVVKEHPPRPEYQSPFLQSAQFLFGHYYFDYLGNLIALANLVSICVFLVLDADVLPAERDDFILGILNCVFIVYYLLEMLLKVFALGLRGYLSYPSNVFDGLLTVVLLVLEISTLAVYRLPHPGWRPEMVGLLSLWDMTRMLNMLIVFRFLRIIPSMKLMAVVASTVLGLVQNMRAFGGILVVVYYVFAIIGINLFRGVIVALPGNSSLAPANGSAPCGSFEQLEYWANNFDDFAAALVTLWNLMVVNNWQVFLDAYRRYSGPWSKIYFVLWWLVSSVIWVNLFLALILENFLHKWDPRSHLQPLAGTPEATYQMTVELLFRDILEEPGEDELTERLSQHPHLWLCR
Briefly: Whole-endolysosome recordings of ITPC2. It is filed as biochemical. Set-up: Whole endo-lysosomal TPC2 current activated by LyNa-VAs, Test 3 / Whole endo-lysosomal TPC2 current activated by LyNa-VAs, mean: unit not given here. To be noted: for ITPC2: whole endolysosome recordings with 100 µM of LyNa-VAs at −120 mV; for Whole endo-lysosomal TPC2 current activated by LyNa-VAs, Test 1 / Whole endo-lysosomal TPC2 current activated by LyNa-VAs, Test 2 / Whole endo-lysosomal TPC2 current activated by LyNa-VAs, Test 3 / Whole endo-lysosomal TPC2 current activated by LyNa-VAs, mean: 100uM; for Whole endo-lysosomal TPC2 current activated by LyNa-VAs, Test 1 / Whole endo-lysosomal TPC2 current activated by LyNa-VAs, Test 2 / Whole endo-lysosomal TPC2 current activated by LyNa-VAs, Test 3: individual recording; for Whole endo-lysosomal TPC2 current activated by LyNa-VAs, mean: mean of n tests.

Structures are written as SMILES. Where “and” joins values, the source holds several entries; their conditions need not be identical. Equal entries are not always repeated. Where two headings read alike, the source gives them in different places.

By EC50 is commonly meant the midpoint of the concentration-response curve.

T1 sequence (Q8NHX9 whole entry L11A/L12A): as the sequence (Q8NHX9 whole entry) above, with L11A, L12A counted along it

For `CN(C)CCC=C1c2ccccc2CCc2ccccc21` [LyNa-VA1.4, Amitriptyline], the “activation of whole-cell ITPC2-LL/AA (in words)” value (“activation” below) in assay [1] is listed as “ITPC2 was evoked”. In addition, the current density in assay [1] (5 µM) was 12.4 pA/pF; in assay [1] (10 µM), 7.736 pA/pF and 9.045 pA/pF and 6.655 pA/pF and 9.464 pA/pF; in assay [1] (20 µM) it was 11.0727 pA/pF and 11.9545 pA/pF and 11.2909 pA/pF and 11.6545 pA/pF; in assay [1] (50 µM), 26.9364 pA/pF and 36.5091 pA/pF and 23.5818 pA/pF and 26.8545 pA/pF; in assay [1] (100 µM), 95.0727 pA/pF and 115.527 pA/pF and 80.9273 pA/pF and 83.2 pA/pF; in assay [1] (200 µM), 156.364 pA/pF and 155.436 pA/pF and 160.382 pA/pF and 158.109 pA/pF. The current density in assay [1] (400 µM) is recorded as 179.973 pA/pF. Further, the EC50 in assay [1] (read-out: EC50) stood at 102 ± 3 µM. Besides, at hTPC2, the ITPC2 stood at 876 ± 196 pA.
`c1ccc2c(c1)Nc1ccccc1S2` [Phenothiazine]: in assay [1], the “activation” value was “no significant activation” and the EC50 result was “No activation”. For the same molecule, the current density in assay [1] (10 µM) was 10.2273 pA/pF and 10.0273 pA/pF and 9.7 pA/pF. Further, the current density in assay [1] (20 µM) is 11.0091 pA/pF and 7.509 pA/pF and 8.936 pA/pF. Besides, the current density in assay [1] (50 µM) was 10.7545 pA/pF and 9.7 pA/pF and 10.2182 pA/pF. Besides, the current density in assay [1] (100 µM) was 9.9 pA/pF and 8.064 pA/pF and 9.882 pA/pF. Besides, the current density in assay [1] (200 µM) was 10.0545 pA/pF and 9.218 pA/pF and 9.555 pA/pF. Besides, at hTPC2, the “Whole endo-lysosomal TPC2 current activated by LyNa-VAs, Test 1” value is listed as 10.3; the “Whole endo-lysosomal TPC2 current activated by LyNa-VAs, Test 2” value is reported as -2.6; the “Whole endo-lysosomal TPC2 current activated by LyNa-VAs, Test 3” value is on record as 4.8; the “Whole endo-lysosomal TPC2 current activated by LyNa-VAs, mean” value is 4.2. Besides, the ITPC2 entry at hTPC2 is given as “No activation”.
`CN(C)CCCN1c2ccccc2CCc2ccccc21` [LyNa-VA1.3, Imipramine]: the current density was 4.664 pA/pF and 36.5364 pA/pF and 8.182 pA/pF in assay [1] (10 µM); 6.518 pA/pF and 56.7909 pA/pF and 7.655 pA/pF in assay [1] (20 µM); 14.1182 pA/pF and 126.618 pA/pF and 15.6182 pA/pF in assay [1] (50 µM); 42.3 pA/pF and 158.945 pA/pF and 32.4364 pA/pF in assay [1] (100 µM); 99.9 pA/pF and 167.955 pA/pF and 41.0364 pA/pF in assay [1] (200 µM); 103.264 pA/pF in assay [1] (400 µM). For the same molecule, the EC50 in assay [1] (read-out: EC50) was determined as 112 ± 1 µM. This molecule also returned an ITPC2 on hTPC2 of 433 ± 94 pA.
Regarding `CNCCC=C1c2ccccc2CCc2ccccc21` [LyNa-VA1.5, Nortriptyline], the current density was 7.1 pA/pF and 35.8727 pA/pF and 7.336 pA/pF and 16.5636 pA/pF in assay [1] (10 µM); 6.773 pA/pF and 73.7727 pA/pF and 24.3182 pA/pF in assay [1] (20 µM); 14.0091 pA/pF and 121.209 pA/pF and 89.9 pA/pF in assay [1] (50 µM); 57.6545 pA/pF and 164.355 pA/pF and 160.345 pA/pF and 75.7909 pA/pF in assay [1] (100 µM); 154.282 pA/pF and 191.036 pA/pF and 204.236 pA/pF and 114.582 pA/pF in assay [1] (200 µM); 180.164 pA/pF in assay [1] (400 µM). Besides, the EC50 in assay [1] (read-out: EC50) was found to be 52 ± 10 µM. At hTPC2, this molecule yielded an ITPC2 of 1916 ± 361 pA.
Turning to `CN(C)CCCN1c2ccccc2Sc2ccc(C(F)(F)F)cc21` [LyNa-VA2.2, Triflupromazine], the current density is 5.827 pA/pF and 3.645 pA/pF and 3 pA/pF in assay [1] (10 µM); 9.373 pA/pF and 9.136 pA/pF and 3.482 pA/pF in assay [1] (20 µM); 33.1545 pA/pF and 26.4182 pA/pF and 44.2909 pA/pF in assay [1] (50 µM); 125.791 pA/pF and 49.7455 pA/pF and 115.618 pA/pF in assay [1] (100 µM); 155.109 pA/pF and 66.0091 pA/pF and 133.127 pA/pF in assay [1] (200 µM). Moreover, in assay [1] (read-out: EC50), the EC50 was 63 ± 2 µM. In addition, at hTPC2, the ITPC2 is on record as 984 ± 294 pA.
For the molecule `CN(C)CCCN1c2ccccc2CCc2ccccc21` [LyNa-VA1.3/imipramine], at hTPC2, the “Whole endo-lysosomal TPC2 current activated by LyNa-VAs, Test 1” value amounted to 621.3; the “Whole endo-lysosomal TPC2 current activated by LyNa-VAs, Test 2” value stood at 343.9; the “Whole endo-lysosomal TPC2 current activated by LyNa-VAs, Test 3” value was 334.8; the “Whole endo-lysosomal TPC2 current activated by LyNa-VAs, mean” value is recorded as 433.3.
Turning to `NC(=O)N1c2ccccc2C=Cc2ccccc21` [Carbamazepine], the “activation” value is given as “no significant activation” in assay [1] and “not by carbamazepine” in assay [1] (listed as carbamazepine). Further, the current density was 8.018 pA/pF and 9.073 pA/pF and 6.645 pA/pF in assay [1] (5 µM); 8.227 pA/pF and 9.227 pA/pF and 5.436 pA/pF in assay [1] (10 µM); 8.573 pA/pF and 9.164 pA/pF and 6.418 pA/pF in assay [1] (20 µM); 8.8 pA/pF and 8.755 pA/pF and 6.073 pA/pF in assay [1] (50 µM); 7.691 pA/pF and 8.973 pA/pF and 5.518 pA/pF in assay [1] (100 µM); 7.464 pA/pF and 9.855 pA/pF and 6.164 pA/pF in assay [1] (200 µM). Further, the current density in assay [1] (400 µM) is 8.109 pA/pF and 8.755 pA/pF and 7.1 pA/pF. In assay [1], the EC50 result is reported as “No activation”. Further, on hTPC2, the “Whole endo-lysosomal TPC2 current activated by LyNa-VAs, Test 1” value is -17. Further, the “Whole endo-lysosomal TPC2 current activated by LyNa-VAs, Test 2” value at hTPC2 turned out to be 9.3. Also, the “Whole endo-lysosomal TPC2 current activated by LyNa-VAs, Test 3” value at hTPC2 stood at 23.1. For the same molecule, the “Whole endo-lysosomal TPC2 current activated by LyNa-VAs, mean” value at hTPC2 stood at 5.1. Further, the ITPC2 result on hTPC2 is on record as “No activation”.
